Measurements from the NIST ThermoML archive (doi:10.1021/je0604479).
Numbers after ± are expanded uncertainties.

Tests used:
[1] = Liquid; for mass density: 298.15 K, 101.33 kPa
[2] = refractive index (Na D-line) (dimensionless); conditions: 298.15 K; 101.33 kPa; Liquid; Standard Abbe refractometry

SMILES: CCCO [propan-1-ol]
- mass density [1]: 799.62 ± 0.57 kg/m3
- vapor or sublimation pressure ([1]; 369.75 K): 101.3 ± 0.8 kPa
- refractive index [2]: 1.3836 ± 0.0008

SMILES: CCCOCCC [dipropyl ether]
- mass density [1]: 741.81 ± 0.65 kg/m3
- vapor or sublimation pressure ([1]; 363.16 K): 101.3 ± 0.8 kPa
- refractive index [2]: 1.3784 ± 0.0008

SMILES: CN(C)C=O [dimethylformamide]
- mass density [1]: 948.72 ± 0.49 kg/m3
- vapor or sublimation pressure ([1]; 425.63 K): 101.3 ± 0.8 kPa
- refractive index [2]: 1.4265 ± 0.0008
